The melting point is the temperature of the solid-liquid transition.

For the compound `N=c1sc2cc(OC(F)(F)F)cc3c2n1CCC3=O` [Example 8, 2-imino-8-trifluoromethoxy-2H,4H-thiazolo-[5,4,3-ij]quinolin-6-one], the melting point stood at 192 °C.

`N=c1sc2cc(OC(F)(F)F)cc3c2n1CC(=O)N3` [Example 37, 2-imino-8-trifluoromethoxy-2H,4H-thiazolo[3,4,5-de]quinoxalin-5(6H)-one] returned a melting point of 255 °C.

The record behind these values is patent publication US6713468B2, “Methods of using thiazolobenzoheterocycles” (Aventis Pharma S.A., priority 1997, dated 2004).
